The test deals with collagen induced arthritis (CIA). The test is described as follows: histological analysis of hind paw joints in CIA. The class given is in vivo, mouse. To be noted: for joints completely protected: hind paws, day 10, control: no normal joints. The method, then:
The hind paws were assessed as normal, mildly affected or severely destroyed.
Hind paws and knee joints were removed post mortem on the tenth day of arthritis, fixed in formalin and decalcified in 5% EDTA. Paws and knees were then embedded in paraffin, sectioned and stained with haematoxylin and eosin. Arthritic changes in the ankle, the metatarsophalangeal joints, the proximal interphalangeal and the distal interphalangeal joints were scored blindly as mild (mild synovial hyperplasia), moderate (pannus formulation and erosions limited to the cartilage-pannus junction), or severe (=extended bone and cartilage erosions with loss of joint architecture).

In the case of `C=C(C)[C@@H]1CCC(C)=C[C@H]1c1c(O)cc(CCCCC)cc1O` [CBD, Cannabidiol], where the note is “5 mg/kg CBD, control mice 69%”, the “joints moderately or severely affected” value is 42%. The joints completely protected is, setting by setting: (5 mg/kg CBD) 33%; (10 mg/kg CBD) 11%.

Source of the values: patent publication US6410588B1, “Use of cannabinoids as anti-inflammatory agents” (priority 1998, dated 2002).
